Assay results from US8187831B2, “Determination of ions using ion-sensitive enzymes” (General Atomics, priority 2003, dated 2012).
Where two headings read alike, the source gives them in different places.

How the values were obtained:
[1] = target: T1, chimeric 3′(2′),5′-bisphosphate nucleotidase (Saccharomyces cerevisiae, UniProt P32179); type: biochemical, Saccharomyces cerevisaie
T1 construct: His6 (C)
Description: (§1) Assay Principle. […] Through enzymatic coupling, the phosphatase substrate, adenosine 3′,5′-bisphosphate (PAP) was converted to hypoxanthine by a series of enzymatic reactions to generate uric acid and hydrogen peroxide (H2O2). H2O2 generated reacts with N-Ethyl-N-(2-hydroxy-3-sulfopropyl)-3-m-toluidine (EHSPT) and 4-aminoantipyrine (4-AA) in the presence of peroxidase (POD) to form a quinone dye which had maximal absorbance at 556 nm. The rate of the quinine dye formation was inversely proportion to the concentration of sodium in serum samples. The enzymatic coupling reaction scheme is shown below in Table 3:
Key Assay Characteristics. The sodium enzymatic assay was a two reagent (R1 and R2) based kinetic assay system. The results were obtained in 10 min by measuring absorbance at 550 nm. No off line pretreatment was needed.
(§2) Assay Procedure. • 1. Reconstituted R1 and R2 reagents as described in Reagent Preparation section and kept the reconstituted R1 and R2 reagents on ice bath. • 2. In a cuvette, mixed 180 μL of Reagent R1 and 20 μL of serum sample and incubated at 37° C. for 1 minute and then added 85 μL of Reagent 2. • 3. Read absorbance (550 nm) at 3 min (2 min after addition of Reagent 2) as A1. Incubated for a further 7 min and read the absorbance at 10 min as A2. • 4. Calculated ΔA=A2−A1
Calibration. This assay was calibrated daily using the enclosed low and high sodium standards. A calibration curve was constructed by plotting the ΔA values of the standards against the corresponding sodium concentrations. The sodium concentration of the sample was read from the calibration curve.

[2] = target: T1, chimeric 3′(2′),5′-bisphosphate nucleotidase; test: biochemical; design: species or system Saccharomyces cerevisaie
Description: as §1, with “(H2O2). The” for “(H2O2).”, “reacted” for “reacts”, “lithium” for “sodium”, “6.” for “3:”
Key Assay Characteristics. The lithium enzymatic assay was a two reagent (R1 and R2) based kinetic assay system. The results were obtained in 10 min by measuring absorbance at 550 nm. No off line pretreatment was needed.
as §2, with “5” for “20”, “6 minutes” for “3 min (2 min after addition of Reagent 2)”, “3 more minutes” for “a further 7 min”, “9 minute” for “10 min”
Calibration and Quality Control. The assay was calibrated daily using the enclosed low and high lithium standards. The calibration curve was constructed by plotting the ΔA values of the standards against the corresponding lithium concentrations. The lithium concentration of the sample was read from the calibration curve. The assay should be calibrated daily.

T1 sequence (P32179 other isoform, or with tags, fused parts or gaps): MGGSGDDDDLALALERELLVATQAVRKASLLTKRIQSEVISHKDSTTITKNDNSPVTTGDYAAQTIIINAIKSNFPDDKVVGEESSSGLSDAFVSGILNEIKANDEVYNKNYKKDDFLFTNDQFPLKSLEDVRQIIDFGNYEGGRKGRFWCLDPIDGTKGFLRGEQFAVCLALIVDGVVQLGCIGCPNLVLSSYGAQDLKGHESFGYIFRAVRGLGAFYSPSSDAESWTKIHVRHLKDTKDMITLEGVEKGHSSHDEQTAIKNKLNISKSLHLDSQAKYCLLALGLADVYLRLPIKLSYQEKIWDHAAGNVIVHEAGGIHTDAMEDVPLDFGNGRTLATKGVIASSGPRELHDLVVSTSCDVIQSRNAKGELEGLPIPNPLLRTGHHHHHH

[Ca+2].[Cl-].[Cl-] [CaCl2]
Interference with sodium assay ([1]; substance at 5 mM): not interfered

[Ca+2] [Ca^2+]
Interference with lithium assay ([2]; substance at 4.0 mM): not interfered

[Cl][Cu][Cl] [CuCl2]
Interference with sodium assay ([1]; substance at 0.25 mM): not interfered

[Cu+2] [Cu^2+]
Interference with lithium assay ([2]; substance at 0.25 mM): not interfered

[Cl][Fe]([Cl])[Cl] [FeCl3]
Interference with sodium assay ([1]; substance at 0.25 mM): not interfered

[Fe+3] [Fe^3+]
Interference with lithium assay ([2]; substance at 0.25 mM): not interfered

[Cl-].[K+] [KCl]
Interference with sodium assay ([1]; substance at 10 mM): not interfered

[K+] [K^+]
Interference with lithium assay [2]: not interfered

[Mg+2] [Mg^2+]
Interference with lithium assay ([2]; substance at 2.0 mM): not interfered

Cl.N [NH4Cl]
Interference with sodium assay [1]: not interfered

N [NH4^+]
Interference with lithium assay ([2]; substance at 0.5 mM): not interfered

[Cl-].[Na+] [NaCl]
Interference with sodium assay [1]: not interfered

[Cl-].[Cl-].[Zn+2] [ZnCl2]
Interference with sodium assay ([1]; substance at 0.25 mM): not interfered

[Zn+2] [Zn^2+]
Interference with lithium assay ([2]; substance at 0.25 mM): not interfered

O=C1O[C@H]([C@@H](O)CO)C(O)=C1O [ascorbic acid]
Interference with sodium assay ([1]; substance at 5 mM): not interfered
Interference with lithium assay ([2]; substance at 5.0 mM): not interfered

[Li] [lithium, reference compound]
IC50 ([2]; read-out: IC50 (nucleotidase activity sensitive to lithium concentration)): 100 µM

[Na+] [sodium]
IC50 ([1]; read-out: IC50 (nucleotidase activity sensitive to sodium concentration)): 20 mM
Interference with lithium assay ([2]; substance at 200 mM): not interfered

KPi
Interference with sodium assay ([1]; substance at 1.5 mM): not interfered

triglyceride
Interference with sodium assay ([1]; substance at 250 mg/dl): not interfered
